Test results from paper PMC6525029 (ACS synthetic biology, 2019).

T1: αvβ3 integrin, P06756
T1 chain 1: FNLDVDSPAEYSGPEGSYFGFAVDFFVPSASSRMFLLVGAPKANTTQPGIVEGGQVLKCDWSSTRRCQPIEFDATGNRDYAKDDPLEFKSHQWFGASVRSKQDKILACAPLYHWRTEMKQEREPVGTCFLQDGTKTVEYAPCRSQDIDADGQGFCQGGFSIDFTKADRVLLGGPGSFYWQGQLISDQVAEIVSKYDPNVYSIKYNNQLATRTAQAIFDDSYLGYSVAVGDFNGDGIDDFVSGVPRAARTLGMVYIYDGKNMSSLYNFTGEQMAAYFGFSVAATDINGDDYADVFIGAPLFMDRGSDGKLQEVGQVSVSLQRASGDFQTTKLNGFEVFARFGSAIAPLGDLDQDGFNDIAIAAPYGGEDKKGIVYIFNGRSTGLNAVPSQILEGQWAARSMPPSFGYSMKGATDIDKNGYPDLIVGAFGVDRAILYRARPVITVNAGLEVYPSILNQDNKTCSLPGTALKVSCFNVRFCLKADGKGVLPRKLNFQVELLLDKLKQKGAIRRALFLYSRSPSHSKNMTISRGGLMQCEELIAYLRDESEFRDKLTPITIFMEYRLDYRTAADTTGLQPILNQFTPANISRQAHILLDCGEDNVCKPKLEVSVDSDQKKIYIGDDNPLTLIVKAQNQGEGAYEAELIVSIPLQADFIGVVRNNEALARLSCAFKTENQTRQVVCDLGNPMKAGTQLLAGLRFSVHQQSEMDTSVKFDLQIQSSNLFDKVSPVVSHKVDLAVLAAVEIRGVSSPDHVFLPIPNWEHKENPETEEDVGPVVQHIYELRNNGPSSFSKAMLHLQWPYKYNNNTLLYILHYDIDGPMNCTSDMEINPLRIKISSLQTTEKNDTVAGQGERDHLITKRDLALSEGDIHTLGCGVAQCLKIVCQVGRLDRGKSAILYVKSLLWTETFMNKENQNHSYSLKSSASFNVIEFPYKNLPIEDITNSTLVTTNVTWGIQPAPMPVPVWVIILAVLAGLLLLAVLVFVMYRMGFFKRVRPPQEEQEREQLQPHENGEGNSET
T1 chain 2: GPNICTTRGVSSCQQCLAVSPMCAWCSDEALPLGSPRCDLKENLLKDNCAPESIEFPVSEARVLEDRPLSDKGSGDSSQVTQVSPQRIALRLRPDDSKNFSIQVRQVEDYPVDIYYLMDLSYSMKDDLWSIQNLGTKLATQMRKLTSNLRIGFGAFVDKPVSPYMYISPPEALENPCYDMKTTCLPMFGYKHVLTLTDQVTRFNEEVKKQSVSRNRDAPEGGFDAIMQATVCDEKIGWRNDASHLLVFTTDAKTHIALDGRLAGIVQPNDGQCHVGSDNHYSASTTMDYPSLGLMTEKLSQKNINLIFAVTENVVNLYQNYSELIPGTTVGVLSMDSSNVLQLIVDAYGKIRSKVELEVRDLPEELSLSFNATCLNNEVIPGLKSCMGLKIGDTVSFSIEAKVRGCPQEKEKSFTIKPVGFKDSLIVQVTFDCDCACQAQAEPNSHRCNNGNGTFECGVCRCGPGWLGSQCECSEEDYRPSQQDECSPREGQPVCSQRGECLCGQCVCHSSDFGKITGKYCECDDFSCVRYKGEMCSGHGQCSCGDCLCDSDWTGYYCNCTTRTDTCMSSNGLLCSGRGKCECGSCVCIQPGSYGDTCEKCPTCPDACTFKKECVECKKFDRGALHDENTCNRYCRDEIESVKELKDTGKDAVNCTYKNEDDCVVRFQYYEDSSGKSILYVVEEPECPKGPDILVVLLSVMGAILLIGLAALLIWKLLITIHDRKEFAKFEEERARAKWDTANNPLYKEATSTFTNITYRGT

B1: linear/unmodified Pcn2.8(16RGD) core peptide (peptide)
chain: CHNHAPSMPPSYWRGDC
modifications: not checked

What was measured:
[1] = biological target: αvβ3 integrin (Homo sapiens, UniProt P05106+P06756); test: Fluorescence polarization; type: binding
[2] = biological target: T1, αvβ3 integrin, P06756; test: fluorescence polarisation

Molecule | Ki [1] | binding to the αvβ3 integrin (in words) ([1]; FP competition experiment, Figure 5 legend) | Ki [2]
CSCC[C@H](NC(=O)[C@H]1CSC[C@H](NC(=O)[C@H](C)NC(=O)[C@H](C)N)C(=O)N[C@@H](Cc2c[nH]cn2)C(=O)N[C@@H](CCCNC(=N)N)C(=O)NCC(=O)N[C@@H](CC(=O)O)C(=O)N2CCC[C@H]2C(=O)N1)C(=O)N1CCC[C@H]1C(=O)N1CCC[C@H]1C(=O)N[C@@H]1CSC[C@@H](C(=O)O)NC(=O)[C@H](CCC(=O)O)NC(=O)CNC(=O)[C@H](CCC(=O)O)NC(=O)[C@H](Cc2c[nH]c3ccccc23)NC(=O)[C@H](Cc2ccc(O)cc2)NC1=O [Pcn2.8(5RGD)] | > 2000 nM | poor binding | 
B1 |  |  | 18 nM
